Results reported in patent US7169930B2, “Analogs of epothilone” (The Scripps Research Institute, priority 2002, dated 2007).

Legend:
porcine tubulin = porcine tubulin (Sus scrofa, UniProt P02554); settings: data from ref. 3; cited from earlier work
[1] = system: 1A9 human ovarian carcinoma cells; experiment: Cytotoxicity, 72 h growth inhibition SRB (sulforhodamine-B) assay, parental cell line; type: cell-based
Method: The biological activities of the synthesized epothilones were evaluated through cytotoxicity, in vitro tubulin polymerization, and tubulin binding assays. Cytotoxicity was first evaluated in a set of ovarian carcinoma cell lines, including a parental cell line (IA9) and three drug-resistant cell lines, namely the paclitaxel-resistant strains (Giannakakou, P.; et al. J. Biol. Chem. 1997, 272, 17118–17125) IA9/PTX10 and IA9/PTX22 and the epothilone-resistant strain (Giannakakou, P.; et al. Proc. Natl. Acad. Sci. U.S.A. 2000, 97, 2904–2909) 1A9/A8. These resistant cell lines harbor distinct acquired β-tubulin mutations which affect drug-tubulin interaction and result in impaired taxane and epothilone-driven tubulin polymerization. The results of these biological investigations are summarized in Table 1 (Skehan, P.; et al. J. Natl. Cancer Inst. 1990, 82, 1107–1112). […]
(§1) The biological activities of the synthesized epothilones were evaluated through cell growth inhibition assays (cytotoxicity assays). Cytotoxicity was first evaluated in a set of ovarian carcinoma cell lines, including a parental cell line (IA9) and three drug-resistant cell lines, namely the paclitaxel-resistant cell lines IA9/PTX10 and IA9/PTX22 (Giannakakou, P.; et al. J. Biol. Chem. 1997, 272, 17118–17125.) and the epothilone-resistant cell line 1A9/A8 (Giannakakou, P.; et al. Proc. Natl. Acad. Sci. 2000, 97, 2904–2909.). […]

[2] = system: KB-31 human epidermoid carcinoma cells; experiment: Cytotoxicity, 96 hour drug exposure, protein dye method, parent epidermoid line; type: cell-based; settings: KB 3-1, KB-31 cells, 96 hour exposure
Method: (§2) The biological activities of the synthesized epothilones were evaluated through cytotoxicity, in vitro tubulin polymerization, and tubulin binding assays. Cytotoxicity was first evaluated in a set of ovarian carcinoma cell lines, including a parental cell line (IA9) and three drug-resistant cell lines, namely the paclitaxel-resistant strains (Giannakakou, P.; et al. J. Biol. Chem. 1997, 272, 17118–17125) IA9/PTX10 and IA9/PTX22 and the epothilone-resistant strain (Giannakakou, P.; et al. Proc. Natl. Acad. Sci. U.S.A. 2000, 97, 2904–2909) 1A9/A8. […]
as §1
(§3) FIG. 15 illustrates a table disclosing the tubulin polymerization potency and cytotoxicity of epothilones 1–8, 10–14, and paclitaxel against human epidermoid cancer cell lines. […] Relative resistance (RR) was calculated by dividing the IC50 value for the resistant cell line by that of the sensitive cell line. […]

KB-8511 cells [3] = experiment: Cytotoxicity, 96 hour drug exposure, protein dye method, Pgp-overexpressing line; type: cell-based, human; settings: versus KB-31; Table 2
Method: as §2, §1, §3

KB-8511 cells [4] = settings: previously shown, Tetrahedron 2002, 58, 6413; cited from earlier work
[5] = biological target: taxoid binding site of microtubules; experiment: Fluorescent taxoid (Flutax-2) displacement assay; settings: 37° C., read-out: equilibrium dissociation constant Kd
Method: In addition to the above biological assays, the relative potency of each epothilone analogue was measured by the fluorescent taxoid displacement assay (Andreu, J. M.; Barasoain, I. Biochemistry 2001, 40, 11975–11984). The purpose of these experiments was to compare the equilibrium constants with which microtubules bind at their taxane site the epothilone analogues investigated. The inhibition of the binding of the well-characterized fluorescent taxoid Flutax-2 (Souto, A. A.; et al. Angew. Chem. Int. Ed. Engl. 1995, 34, 2710–2712; Diaz, J. F.; et al. J. Biol. Chem. 2000, 275, 26265–26276; Abal, M.; et al. Cell. Motil. Cytoskeleton 2001, 49, 1–15) to microtubules by each of the epothilone analogues was measured at 37° C. (FIG. 2). […]
FIG. 2 illustrates a chart showing the displacement of the fluorescent taxoid Flutax-2 (50 nM) from microtubule binding sites (50 nM) by competing ligands at 37° C. […] Representative curves for selected epothilone analogues (3, 4, and 8) are presented in this figure to exemplify how the binding affinities were measured for each compound in Table 3.
FIG. 16 illustrates a table disclosing binding affinities of epothilone analogues to the taxoid binding site of microtubules. […] The binding constant of the reference ligand Flutax-2 was measured by centrifugation and fluorescence anisotropy, at each temperature (Diaz, J. F.; et al. J. Biol. Chem. 2000, 275, 26265–26276).

[6] = system: 1A9 human ovarian carcinoma cells; settings: previous data, Tetrahedron 2002, 58, 6413; cited from earlier work

Chain of porcine tubulin (P02554 whole entry): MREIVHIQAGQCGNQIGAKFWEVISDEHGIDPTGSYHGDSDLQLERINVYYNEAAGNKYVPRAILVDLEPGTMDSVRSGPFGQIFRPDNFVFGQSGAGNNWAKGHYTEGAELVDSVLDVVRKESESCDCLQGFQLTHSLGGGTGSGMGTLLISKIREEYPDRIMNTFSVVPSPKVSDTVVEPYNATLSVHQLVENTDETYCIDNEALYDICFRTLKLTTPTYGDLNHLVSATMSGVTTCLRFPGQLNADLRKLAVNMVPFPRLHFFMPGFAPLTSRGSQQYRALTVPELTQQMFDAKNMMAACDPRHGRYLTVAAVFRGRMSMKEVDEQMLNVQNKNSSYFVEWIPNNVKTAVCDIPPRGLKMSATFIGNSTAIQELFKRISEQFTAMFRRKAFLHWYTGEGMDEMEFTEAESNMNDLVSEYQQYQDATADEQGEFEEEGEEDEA
Chain of porcine tubulin (P02550 whole entry partner): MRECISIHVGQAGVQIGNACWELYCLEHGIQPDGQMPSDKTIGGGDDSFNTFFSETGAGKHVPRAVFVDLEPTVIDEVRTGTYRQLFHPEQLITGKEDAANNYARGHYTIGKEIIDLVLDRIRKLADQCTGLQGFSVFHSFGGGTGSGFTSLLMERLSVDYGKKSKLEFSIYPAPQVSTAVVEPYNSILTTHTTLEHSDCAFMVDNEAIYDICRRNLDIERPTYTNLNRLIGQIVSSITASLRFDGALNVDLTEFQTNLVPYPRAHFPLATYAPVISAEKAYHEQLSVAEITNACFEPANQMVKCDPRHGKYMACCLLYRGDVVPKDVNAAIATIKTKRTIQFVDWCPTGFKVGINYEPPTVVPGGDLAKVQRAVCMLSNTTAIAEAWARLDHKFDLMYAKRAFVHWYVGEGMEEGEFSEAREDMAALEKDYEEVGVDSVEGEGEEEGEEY

C/C(=C\c1csc(C)n1)[C@@H]1C[C@@H]2O[C@]2(C)CCC[C@H](C)[C@H](O)[C@@H](C)C(=O)C(C)(C)[C@@H](O)CC(=O)O1 [Compound 2, epothilone B]
% TP (tubulin polymerization) (porcine tubulin): 90% | fold more active than epothilone A (1) ([1]; cis epoxide series, conclusion drawn collectively from all three assays): at least 10 fold

CC(=Cc1ccc(C)cn1)C1CC2CC2(C)CCCC(C)C(O)C(C)C(=O)C(C)(C)C(O)CC(=O)O1 (centres unmarked) [Compound 8]
IC50 [2]: 0.9 nM | IC50 ([1]; Homo sapiens, 1A9 cells, 72 h SRB assay): 1.7 nM

CC(=O)O[C@H]1C(=O)[C@@]2(C)[C@H]([C@H](OC(=O)c3ccccc3)[C@]3(O)C[C@H](OC(=O)[C@H](O)[C@@H](NC(=O)c4ccccc4)c4ccccc4)C(C)=C1C3(C)C)[C@]1(OC(C)=O)CO[C@@H]1C[C@@H]2O [paclitaxel]
% TP (tubulin polymerization) (porcine tubulin): 49% | fold less active against KB-8511 cells (KB-8511 cells [3]): 214 fold | fold less active against KB-8511 cells compared to KB-31 cells (KB-8511 cells [4]): 214 fold

C/C(=C\c1csc(C)n1)[C@@H]1C[C@@H]2O[C@@H]2CCC[C@H](C)[C@H](O)[C@@H](C)C(=O)C(C)(C)[C@@H](O)CC(=O)O1 [Compound 1, epothilone A]
% TP (tubulin polymerization) (porcine tubulin): 69% | Kd [5]: 34 ± 4 nM

CSc1nc(/C=C(\C)[C@@H]2C[C@@H]3O[C@]3(C)CCC[C@H](C)[C@H](O)[C@@H](C)C(=O)C(C)(C)[C@@H](O)CC(=O)O2)cs1 [Compound 3, 2-(thiomethyl)thiazole epothilone B]
fold more active than the parent epothilone B [6]: about 2 fold | Kd [5]: 0.64 ± 0.24 nM
